From patent US10336762B2 (priority 2017, dated 2019)

Assays:
TNFα = assay: cells; format: cell-based, human; details: Homo sapiens, Monocyte, LPS-stimulated human monocytes, TNFα content; read-out: EC50 TNF
IRAK4 enzyme = IRAK4 enzyme (Homo sapiens (Human), UniProt Q9NWZ3); assay: biochemical; format: biochemical; details: IRAK4 enzyme, TR-FRET, 500 μM ATP
Chain of IRAK4 enzyme (Q9NWZ3 whole entry): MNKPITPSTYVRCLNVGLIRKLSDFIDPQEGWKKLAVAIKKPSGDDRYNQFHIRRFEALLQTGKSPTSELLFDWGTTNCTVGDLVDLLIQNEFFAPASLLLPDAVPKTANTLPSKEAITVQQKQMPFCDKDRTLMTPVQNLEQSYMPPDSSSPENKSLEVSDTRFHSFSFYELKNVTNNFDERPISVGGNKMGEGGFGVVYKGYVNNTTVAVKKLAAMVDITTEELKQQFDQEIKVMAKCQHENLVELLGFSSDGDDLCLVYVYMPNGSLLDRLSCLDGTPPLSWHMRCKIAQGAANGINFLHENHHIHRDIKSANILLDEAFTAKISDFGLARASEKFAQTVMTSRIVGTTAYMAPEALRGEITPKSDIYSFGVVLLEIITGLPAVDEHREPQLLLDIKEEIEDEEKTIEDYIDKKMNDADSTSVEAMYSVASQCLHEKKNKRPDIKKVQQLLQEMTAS

Structure (SMILES) | EC50 (TNFα) | IC50 (IRAK4 enzyme)
COC(C)(C)CCNC(=O)c1cnc(-c2ccc3cc(C#N)cnn23)cc1NC(C)C [Example 87, 6-(3-cyanopyrrolo[1,2-b]pyridazin-7-yl)-4-(isopropylamino)-N-(3-methoxy-3-methylbutyl)nicotinamide] | 160 nM | 1 nM
CC(C)Nc1cc(-c2ccc3cc(C#N)cnn23)ncc1C(=O)NCCNS(C)(=O)=O [Example 88, 6-(3-cyanopyrrolo[1,2-b]pyridazin-7-yl)-4-(isopropyl-amino)-N-(2-(methylsulfonamido)ethyl) nicotinamide] | 209 nM | 3 nM
CC(C)(O)[C@H](F)CNC(=O)c1cnc(-c2ccc3cc(C#N)cnn23)cc1Nc1cnn(CC(F)F)c1 [Example 89, (R)-6-(3-cyanopyrrolo[1,2-b]pyridazin-7-yl)-4-((1-(2,2-difluoroethyl)-1H-pyrazol-4-yl)amino)-N-(2-fluoro-3-hydroxy-3-methylbutyl) nicotinamide] | 16 nM | < 1 nM
CC(C)Nc1cc(-c2ccc3cc(C#N)cnn23)ncc1C(=O)NC1CCC(C)(O)CC1 (stereo not shown) [Example 90, 6-(3-cyanopyrrolo[1,2-b]pyridazin-7-yl)-N-((1s,4s)-4-hydroxy-4-methylcyclohexyl)-4-(isopropylamino) nicotinamide] | 417 nM | 3 nM
CC(C)Nc1cc(-c2ccc3cc(C#N)cnn23)ncc1C(=O)NCCC1(O)CCC1 [Example 91, 6-(3-cyanopyrrolo[1,2-b]pyridazin-7-yl)-N-(2-(1-hydroxycyclobutyl)ethyl)-4-(isopropylamino) nicotinamide] | 62 nM | < 1 nM
CC(C)Nc1cc(-c2ccc3cc(C#N)cnn23)ncc1C(=O)NCCS(C)(=O)=O [Example 92, 6-(3-cyanopyrrolo[1,2-b]pyridazin-7-yl)-4-(isopropylamino)-N-(2-(methylsulfonyl)ethyl) nicotinamide] | 80 nM | 2 nM
CC(C)(O)[C@H](F)CNC(=O)c1cnc(-c2ccc3cc(C#N)cnn23)cc1N[C@@H]1C[C@@H]2CC[C@H]1O2 [Example 93, 4-(((1R,2R,4S)-7-oxabicyclo[2.2.1]heptan-2-yl)amino)-6-(3-cyano-pyrrolo[1,2-b]pyridazin-7-yl)-N-((R)-2-fluoro-3-hydroxy-3-methylbutyl)nicotinamide] | 78 nM | 1 nM
CC(C)(O)[C@H](F)CNC(=O)c1cnc(-c2ccc3cc(C#N)cnn23)cc1N[C@@H]1C[C@H]2CC[C@@H]1O2 [Example 94, 4-(((1S,2R,4R)-7-oxa-bicyclo[2.2.1]heptan-2-yl)amino)-6-(3-cyanopyrrolo[1,2-b]pyridazin-7-yl)-N-((R)-2-fluoro-3-hydroxy-3-methylbutyl)nicotinamide] | 92 nM | 1 nM
CC(C)Nc1cc(-c2ccc3cc(C#N)cnn23)ncc1C(=O)NCCC1(O)CCOCC1 [Example 95, 6-(3-cyanopyrrolo[1,2-b]pyridazin-7-yl)-N-(2-(4-hydroxytetrahydro-2H-pyran-4-yl)ethyl)-4-(isopropylamino) nicotinamide] | 42 nM | 1 nM
CC(C)Nc1cc(-c2ccc3cc(C#N)cnn23)ncc1C(=O)NC1CC2(COC2)C1 [Example 96, 6-(3-cyanopyrrolo[1,2-b]pyridazin-7-yl)-4-(isopropyl-amino)-N-(2-oxaspiro[3.3]heptan-6-yl) nicotinamide] | 79 nM | 2 nM
CC(C)(O)[C@H](F)CNC(=O)c1cnc(-c2ccc3cc(C#N)cnn23)cc1NCC1(O)CC1 [Example 97, (R)-6-(3-cyanopyrrolo[1,2-b]pyridazin-7-yl)-N-(2-fluoro-3-hydroxy-3-methylbutyl)-4-(((1-hydroxycyclopropyl)methyl)amino)nicotinamide] | 180 nM | 2 nM
CC(C)(O)[C@H](F)CNC(=O)c1cnc(-c2ccc3cc(C#N)cnn23)cc1NC1CN(S(C)(=O)=O)C1 [Example 98, (R)-6-(3-cyanopyrrolo[1,2-b]pyridazin-7-yl)-N-(2-fluoro-3-hydroxy-3-methylbutyl)-4-((1-(methylsulfonyl)azetidin-3-yl)amino)nicotinamide] | 358 nM | 2 nM
CC(C)(O)[C@H](F)CNC(=O)c1cnc(-c2ccc3cc(C#N)cnn23)cc1NC1CC2(CCC2)C1 [Example 99, (R)-6-(3-cyanopyrrolo[1,2-b]pyridazin-7-yl)-N-(2-fluoro-3-hydroxy-3-methylbutyl)-4-(spiro[3.3]heptan-2-ylamino)nicotinamide] | 130 nM | 1 nM
COCCNc1cc(-c2ccc3cc(C#N)cnn23)ncc1C(=O)NC[C@@H](F)C(C)(C)O [Example 100, (R)-6-(3-cyanopyrrolo[1,2-b]pyridazin-7-yl)-N-(2-fluoro-3-hydroxy-3-methylbutyl)-4-((2-methoxyethyl)amino) nicotinamide] | 195 nM | 4 nM
CC(C)(O)[C@H](F)CNC(=O)c1cnc(-c2ccc3cc(C#N)cnn23)cc1N[C@H]1C[C@@H]2CC[C@H]1C2 [Example 101, 4-(((1S,2S,4R)-bicyclo[2.2.1]heptan-2-yl)amino)-6-(3-cyanopyrrolo[1,2-b]pyridazin-7-yl)-N-((R)-2-fluoro-3-hydroxy-3-methylbutyl) nicotinamide] | 82 nM | < 1 nM
CC(C)(O)[C@H](F)CNC(=O)c1cnc(-c2ccc3cc(C#N)cnn23)cc1NCCCS(C)(=O)=O [Example 103, (R)-6-(3-cyanopyrrolo[1,2-b]pyridazin-7-yl)-N-(2-fluoro-3-hydroxy-3-methylbutyl)-4-((3-(methylsulfonyl)propyl)amino)nicotinamide] | 75 nM | < 1 nM
Cn1cc(CNc2cc(-c3ccc4cc(C#N)cnn34)ncc2C(=O)NC[C@@H](F)C(C)(C)O)cn1 [Example 104, (R)-6-(3-cyanopyrrolo[1,2-b]pyridazin-7-yl)-N-(2-fluoro-3-hydroxy-3-methylbutyl)-4-(((1-methyl-1H-pyrazol-4-yl)methyl)amino) nicotinamide] | 274 nM | 6 nM
CC(C)(O)[C@H](F)CNC(=O)c1cnc(-c2ccc3cc(C#N)cnn23)cc1NCc1c[nH]cn1 [Example 105, (R)-4-(((1H-imidazol-4-yl)methyl)amino)-6-(3-cyanopyrrolo[1,2-b]pyridazin-7-yl)-N-(2-fluoro-3-hydroxy-3-methylbutyl)nicotinamide] | 3160 nM | 9 nM
CC(C)(O)[C@H](F)CNC(=O)c1cnc(-c2ccc3cc(C#N)cnn23)cc1NC[C@H]1CCC(=O)N1 [Example 106, 6-(3-cyanopyrrolo[1,2-b]pyridazin-7-yl)-N-((R)-2-fluoro-3-hydroxy-3-methylbutyl)-4-((((R)-5-oxopyrrolidin-2-yl)methyl)amino) nicotinamide] | 1380 nM | 3 nM
Cc1noc(C)c1CNc1cc(-c2ccc3cc(C#N)cnn23)ncc1C(=O)NC[C@@H](F)C(C)(C)O [Example 107, (R)-6-(3-cyanopyrrolo[1,2-b]pyridazin-7-yl)-4-(((3,5-dimethylisoxazol-4-yl)methyl)amino)-N-(2-fluoro-3-hydroxy-3-methylbutyl) nicotinamide] | 961 nM | 17 nM
